The values below come from patent US20090311264A1, “Use of Disorazoles and Their Derivatives for the Treatment of Benign and Malignant Oncoses” (AEterna Zentaris GmbH, priority 2003, published 2009).

pEC50: −log10 of the molar value. Values after ≈ are worked out from the molar mass of the structure shown. “Also recorded” adds a separate entry of the source. Read-outs that look alike come from different tables or passages of the source.

Data set [1] relates to human cervical carcinoma cell line KB/HeLa. As to the kind of experiment: XTT proliferation assay, KB/HeLa. The format is cell-based. The conditions noted are these: for EC50: Homo sapiens, HeLa. The source says:
(§1) The compounds according to the invention were investigated for their antiproliferative activity in a proliferation test on established tumor cell lines (D. A. Scuderio et al. Cancer Res. 1988, 48, 4827-4833). The test used determines the cellular dehydrogenase activity and makes possible a determination of the cell vitality and indirectly of the cell count. The cell lines used are the human cervical carcinoma cell line KB/HeLa (ATCC CCL17), the ovarian adenocarcinoma cell line SKOV-3 (ATCC HTB77), the human glioblastoma cell line SF-268 (NCI 503138), the lung carcinoma cell line NCI-H460 (NCI 503473) and the human colon adenocarcinoma cell line RKOP 27.

Data set [2] deals with ovarian adenocarcinoma cell line SKOV-3. Briefly: XTT proliferation assay, SKOV-3. In kind it is cell-based, human. As to conditions: for EC50: Homo sapiens, SK-OV-3, read-out: XTT proliferation assay, EC50, SKOV3.
Source text: as §1
In general terms: Formazan colour is commonly taken as a measure of viable cells.

Data set [3] concerns human glioblastoma cell line SF-268. As to the kind of experiment: XTT proliferation assay, SF-268. The format is cell-based. The conditions noted are these: for EC50: Homo sapiens.
Source text: as §1

Data set [4] has as its system lung carcinoma cell line NCI-H460. As to the kind of experiment: XTT proliferation assay, NCI-H460. As to conditions: for EC50: Homo sapiens, NCI-H460, read-out: XTT proliferation assay, EC50, NCl-H460. The format is cell-based, human.
Source text: as §1

Data set [5] deals with acute myeloid leukemia cell line LT12. Briefly: XTT proliferation test, LT12 (nonresistant). In kind it is cell-based. The conditions noted are these: for EC50: Rattus norvegicus. The source says: (§2) For further characterization, the substances according to the invention were investigated against multi-drug-resistant cell lines (MDR) in comparison to the nonresistant wild-type cell lines. The cell lines investigated are the acute myeloid leukemia cell line LT1 and the resistant line LT12/mdr. Moreover, the murine P388 cell line (methylcholanthrene-induced lymphoid neoplasm) and the doxorubicin-resistant P388 were used as test systems.

In data set [6] the test system is resistant line LT12/mdr. Briefly: XTT proliferation test, LT12MDR (resistant). In kind it is cell-based. As to conditions: for EC50: Rattus norvegicus, LT12.
Source text: as §2

The subject of data set [7] is murine P388 cell line. Briefly: XTT proliferation test, P388 (nonresistant). The format is cell-based. As to conditions: for EC50: Mus musculus.
Source text: as §2

Data set [8] concerns doxorubicin-resistant P388. Briefly: XTT proliferation test, P388ADR (resistant). In kind it is cell-based, murine. The conditions noted are these: for EC50: Mus musculus, P388.
Source text: as §2

For data set [9], the system named is KB/HeLa cells. As to the kind of experiment: Cell cycle analysis (G2/M arrest). In kind it is cell-based, human. As to conditions: 24 hours at 37° C., read-out: EC50 (50% cells in G2/M).
The test system of data set [10] is human colon adenocarcinoma cell line RKOP 27. As to the kind of experiment: XTT proliferation assay, RKOP 27. The format is cell-based.
Source text: as §1

Data set [11] concerns bovine β-tubulin. Briefly: Inhibition of the polymerization of tubulin. In kind it is biochemical. As to conditions: n = 2. As for the experimental part: The substances were tested in an in-vitro test for inhibition of the polymerization of bovine β-tubulin (D. M. Bollag et al. Cancer Res. 1995, 55, 2325-2333). In this test, tubulin purified by cycles of polymerization and depolymerization is employed, and is polymerized by addition of GTP and warming. The EC50 values of the inhibition of polymerization of β-tubulin with and without 30% associated proteins (MAPs) are indicated in table 3.

For data set [12], the system named is NCI-H460 tumor xenograft. As to the kind of experiment: In vivo therapy experiment, NCI-H460 tumor xenograft. More on the design: species or system nude mice. The conditions noted are these: for cases of death: n = 8 animals/group. As for the experimental part:
The in-vivo activity of the compounds according to the invention was tested on human and murine xenograft models.

For data set [13], the system named is Salmonella typhimurium TA100. The format is cell-based. As to conditions: for AMES TA100 with S9: with rat liver enzyme S9. As for the experimental part:
(§3) For the estimation of possible side effects, disorazole E1 was investigated for mutagenicity in a fluctuation assay against the mutant strains TA98 and TA100 of the bacterium Salmonella typhimurium at three concentrations (2.5; 5 and 10 μM). The mutagenicity investigations were further carried out in the presence of the rat liver enzyme S9.

Data set [14] has as its system Salmonella typhimurium TA98. In kind it is cell-based. As to conditions: for AMES TA98 with S9: with rat liver enzyme S9. As for the experimental part: as §3
Data set [15] relates to primary human hepatocytes. Briefly: Survival of nonproliferating cells (alamarBlue). The format is cell-based. As to conditions: 1 μM, n = 3. The source says:
(§4) For the estimation of the possible side-effect potential, the influence of disorazole E1 on nonproliferating cells and on the protein biosynthesis was investigated (table 6).
In general terms: The colour change of resazurin is a common sign of viable cells or microbes.

In data set [16] the test system is human hepatocellular carcinoma cells (HepG2). As to the kind of experiment: Protein synthesis (incorporation of 14C-methionine). The format is cell-based. As to conditions: 1 μM, 14C-methionine incorporation, n = 2.
Source text: as §4

As for `CC(=O)O[C@H]1C(=O)[C@@]2(C)[C@H]([C@H](OC(=O)c3ccccc3)[C@]3(O)C[C@H](OC(=O)[C@H](O)[C@@H](NC(=O)c4ccccc4)c4ccccc4)C(C)=C1C3(C)C)[C@]1(OC(C)=O)CO[C@@H]1C[C@@H]2O` [Paclitaxel], the EC50 was 10 ng/mL (≈ 0.0117 µM) in data set [1]; 10 ng/mL (≈ 0.0117 µM) in [2]; 10 ng/mL (≈ 0.0117 µM) in data set [3]; 10 ng/mL (≈ 0.0117 µM) in [4]; 5 ng/mL (≈ 0.00586 µM) in [5]; 340 ng/mL (≈ 0.398 µM) in data set [6]. In addition, the EC50 in [7] was 35 ng/mL (≈ 0.041 µM); in data set [8], over 3160 ng/mL. Also, the pEC50 in data set [9] (Homo sapiens) is 7.34.

Regarding `C/C=C/C(O)C(C)(C)C1C/C=C\C2OC2C=CC(OC)Cc2nc(co2)C(=O)OC(C(C)(C)C(O)/C=C/C)C/C=C\C2OC2/C=C\C=Cc2nc(co2)C(=O)O1` (centres unmarked) [Disorazole E1], the “XTT proliferation assay, EC50, KB/Hela” value in data set [1] came out at 0.07 ng/mL. Also, the “XTT proliferation assay, EC50, SKOV3” value in data set [2] was determined as 0.02 ng/mL. In data set [3], the “XTT proliferation assay, EC50, SF-268” value worked out at 0.17 ng/mL. Also, the “XTT proliferation assay, EC50, NCl-H460” value in data set [4] is 0.04 ng/mL. Also, the “XTT proliferation assay, EC50, RKOP 27” value in data set [10] was determined as 0.06 ng/mL. The “XTT proliferation assay, EC50, LT12” value in data set [5] stood at 0.1 ng/mL. The “XTT proliferation assay, EC50, LT12MDR” value in data set [6] was found to be 4 ng/mL. Further, the “XTT proliferation assay, EC50, P388” value in data set [7] stood at 0.4 ng/mL. The “XTT proliferation assay, EC50, P388ADR” value in [8] is 1 ng/mL. Also, the “Inhibition of the polymerization of β-tubulin, EC50 with 30% MAPs” value (“Inhibition … with 30% MAPs” for short) in data set [11] is 1500 ng/mL. Also, the pEC50 in data set [9] is 8.80. Also, the cases of death is 0.05 mg/kg; i.v.: day 0, 7, 14; no cases of in data set [12] (0.05 mg/kg, i.v.: day 0, 7, 14); 0.1 mg/kg; i.v.: day 0, 7, 14; no cases of in data set [12] (0.1 mg/kg, i.v.: day 0, 7, 14); 0.25 mg/kg; i.v.: day 0, 7; 8 dead (day in data set [12] (0.25 mg/kg, i.v.: day 0, 7, dead on day 11, 12, 13). The “reduction of the tumor growth” value in data set [12] (i.v., NCI-H460 xenograft-bearing nude mice, at doses without weight decrease or mortality) is “significant reduction in tumor growth; also recorded: significant reduction of the tumor growth”. In addition, in data set [12] (i.v., at doses reducing tumor growth), the weight decrease result was “no significant weight decrease”. Also, the “AMES TA100 with S9” value in data set [13] (2.5 μM), in [13] (5 μM) and in [13] (10 μM) was “inactive” in each case. Besides, the “AMES TA100 without S9” value in [13] (2.5 μM), in data set [13] (5 μM) and in data set [13] (10 μM) was “inactive” in each case. In addition, the “AMES TA98 with S9” value in data set [14] (2.5 μM), in data set [14] (5 μM) and in [14] (10 μM) was “inactive” each time. Besides, the “AMES TA98 without S9” value in data set [14] (2.5 μM), in data set [14] (5 μM) and in data set [14] (10 μM) was “inactive” in each case. The “AMES test, overall result” value in data set [14] (TA98 and TA100, with and without S9, 2.5, 5 and 10 μM) is “AMES test-inactive”. In addition, in data set [15], the “Surviving cells, primary human hepatocytes, Average, % of control” value is reported as 119.6 % of control. The “Protein synthesis, Average, % of control” value in data set [16] is recorded as 95.9 % of control.

In the case of `CC[C@]1(O)C[C@@H]2CN(CCc3c([nH]c4ccccc34)[C@@](C(=O)OC)(c3cc4c(cc3OC)N(C)[C@H]3[C@@](O)(C(N)=O)[C@H](O)[C@]5(CC)C=CCN6CC[C@]43[C@@H]65)C2)C1` [Vindesine], the EC50 in data set [1] is 2 ng/mL (≈ 0.00265 µM); in [2], 2 ng/mL (≈ 0.00265 µM); in data set [3], 5 ng/mL (≈ 0.00663 µM); in data set [4] it was 6 ng/mL (≈ 0.00796 µM); in data set [5], 0.9 ng/mL (≈ 0.00119 µM); in data set [6] it was 222 ng/mL (≈ 0.294 µM). The EC50 in [7] turned out to be 9 ng/mL (≈ 0.0119 µM); in data set [8], 940 ng/mL (≈ 1.25 µM). The “Inhibition … with 30% MAPs” value in [11] amounted to 400 ng/mL. The pEC50 in data set [9] (Homo sapiens) was 8.52.

In the case of `C/C=C/[C@H](O)C(C)(C)[C@@H]1C\C=C/C=C\C=C\[C@H](OC)Cc2nc(co2)C(=O)O[C@H](C(C)(C)[C@@H](O)/C=C/C)C/C=C\[C@H]2O[C@H]2/C=C/C=C\c2nc(co2)C(=O)O1` [Disorazole A1], the “XTT proliferation assay, EC50, KB/Hela” value in [1] was determined as 0.15 ng/mL. Moreover, in data set [2], the “XTT proliferation assay, EC50, SKOV3” value turned out to be 0.2 ng/mL. In data set [3], the “XTT proliferation assay, EC50, SF-268” value came out at 0.27 ng/mL. The “XTT proliferation assay, EC50, NCl-H460” value in [4] worked out at 0.15 ng/mL. The “XTT proliferation assay, EC50, RKOP 27” value in data set [10] amounted to 0.25 ng/mL. For the same compound, the “Inhibition … with 30% MAPs” value in data set [11] came to 4800 ng/mL.
